Source: patent EP0467365A2, “Use of a 5-hydroxytryptamine-3(5-HT3) receptor antagonist for the preparation of a pharmaceutical composition for treating urinary incontinence” (E.R. SQUIBB & SONS, INC., priority 1990, dated 1992)
“Also recorded” adds a separate entry of the source. Counter-ions that a name gives are not always drawn. Like-named read-outs stand apart in the source and are kept apart here.

Tests used:
Assay type in all cases: cell-based
[1] = test system: rabbit bladder; assay: Contractile response of rabbit bladder strips to electrical field stimulation of intrinsic nerves; settings: for effect on the response to field stimulation: α,β-methylene ATP dose-dependent, all frequencies
[2] = test system: rabbit bladder strips; assay: 5-HT-induced contraction of rabbit bladder (detrusor) strips, organ bath tension recording; settings: for antagonism of the 5-HT-induced contraction / pA2: 30 minutes exposure; for antagonism of the 5-HT-induced contraction: BRL 43694 5 x 10^-11 to 2 x 10^-10M, ICS 205930 5 x 10^-12 to 1 x 10^-10M, MDL 72222 5 x 10^-10 to 5 x 10^-9M; for pA2: antagonism of 5-HT-induced contraction, rabbit detrusor strips, Schild plot, mean ± s.e.mean; for atropine and α,β-methylene ATP-resistant component of 5-HT-induced contraction: bladder strips, in presence of atropine and α,β-methylene ATP; for effect on the contractile response to 5-HT: ketanserine 10^-7 to 10^-6M, methysergide and metitepine 10^-8 to 10^-7M, anterior detrusor of female rabbits; for inhibition of the 5-HT contractions: atropine 10^-7M, α,β-methylene ATP 10^-6M
[3] = test system: urethra; assay: 5-HT-induced contraction of rabbit urethra strips, organ bath tension recording; settings: 30-second application, 10^-6 to 10^-3M

With `NC1=N[C@H](O)[C@H]2[C@H]3O[C@]4(O)O[C@@H]([C@@H](O)[C@@]2(N1)[C@@H]4O)[C@]3(O)CO` [TTX, Tetrodotoxin] as the compound, how does the “abolition of the responses to field stimulation” value [1] read?
The value was “complete; also recorded: completely blocks”.

What about the “effect on the 5-HT-induced contraction of the rabbit bladder” value (“effect on the 5-HT-induced contraction” below) [2] of the same compound?
The value was “did not affect; also recorded: no effect”.

With `Cc1ccc(N(CC2=NCCN2)c2cccc(O)c2)cc1` [phentolamine, Phentolamine mesylate] as the compound, how does the “effect on the 5-HT-induced contraction” value [2] read?
The value was “did not affect; also recorded: not blocked”.

How did the “effect on the contraction to field stimulation” value ([1]; 10^-7M) turn out when `CN1[C@@H]2CC[C@H]1C[C@@H](OC(=O)c1cc(Cl)cc(Cl)c1)C2` [MDL 72222, laH,3a,5aH-tropan-3-yl-3,5-dichlorobenzoate] was run?
The value was “no effect”.

And the “antagonism of the 5-HT-induced contraction” value (shortened to “antagonism”) [2]?
Its value is “strongly and competitively antagonized; also recorded: dose-dependent inhibition; also recorded: effective at blocking”.

And the pA2 [2]?
The pA2 was 9.3 ± 0.04.

What about the “atropine and α,β-methylene ATP-resistant component of 5-HT-induced contraction” value [2] of the same compound?
Its value is “not abolished”.

Which results are given for Metitepine monomethanesulfonate?
atropine and α,β-methylene ATP-resistant component of 5-HT-induced contraction [2]: not abolished; effect on the contractile response to 5-HT [2]: no significant effect

With `COc1cc2nc(N3CCN(C(=O)c4ccco4)CC3)nc(N)c2cc1OC` [prazosin, Prazosin hydrochloride] as the compound, how does the “effect on the 5-HT-induced contraction” value ([2]; hydrochloride) read?
The value was “did not affect; also recorded: not blocked”.

For `CN1[C@@H]2CC[C@H]1CC(OC(=O)C(CO)c1ccccc1)C2.CN1[C@@H]2CC[C@H]1CC(OC(=O)C(CO)c1ccccc1)C2.O=S(=O)(O)O` (stereo partly drawn) [Atropine, Atropine sulphate], which “inhibition of the response to field stimulation (maximum)” value ([1]; 20 minute pretreatment, 10^-8 to 10^-6M, maximum at high frequencies) is on record?
The value was 40%.

And the “control response to field stimulation still persisting” value ([1]; atropine 10^-8 to 10^-6M, 5-50 Hz, posterior detrusor of male rabbits)?
The value was “approximately 60%”.

And the “effect on the response to field stimulation” value ([1]; atropine 10^-8 to 10^-6M)?
Its value is “only partially inhibited”.

What about the “inhibition of the 5-HT contractions” value [2] of the same compound?
The value was “partially inhibited”.

How did the “antagonism” value ([2]; hydrochloride) turn out when `CN1C2CCCC1CC(NC(=O)c1nn(C)c3ccccc13)C2` (stereo not drawn) [BRL 43694, [endo]N-(9-methyl-9-azabicyclo-[3,3,1]-non-3-yl)-1-methyl-1H-indazole-3-carboxamide hydrochloride] was run?
Its value is “strongly and competitively antagonized; also recorded: dose-dependent inhibition”.

And the “antagonism” value ([2]; listed as BRL 43695, hydrochloride)?
The value was “effective at blocking”.

What about the pA2 [2] of the same compound?
Its pA2 is 10.5 ± 0.01.

What about the “atropine and α,β-methylene ATP-resistant component of 5-HT-induced contraction” value [2] of the same compound?
Its value is “not abolished”.

How did the “effect on the 5-HT-induced contraction” value [2] turn out when `C[N+](C)(C)CCCCCC[N+](C)(C)C` [hexamethonium, Hexamethonium bromide] was run?
The value was “did not affect; also recorded: not blocked”.

What does the source list for `CN1[C@@H]2CC[C@H]1C[C@@H](OC(=O)c1c[nH]c3ccccc13)C2` [ICS 205930, 3a-tropanyl-1 H-indole-3-carboxylic acid ester]?
antagonism of the 5-HT-induced contraction [2]: strongly and competitively antagonized; also recorded: effective at blocking; antagonism of the 5-HT-induced contraction ([2]; listed as ICS 205-930): most potent antagonistic effect; pA2 [2]: 12.5 ± 0.36; atropine and α,β-methylene ATP-resistant component of 5-HT-induced contraction [2]: not abolished

Which results are given for `CC[C@@H](CO)NC(=O)[C@@H]1C=C2c3cccc4c3c(cn4C)C[C@H]2N(C)C1` [methysergide, Methysergide bimaleate]?
atropine and α,β-methylene ATP-resistant component of 5-HT-induced contraction [2]: not abolished; effect on the contractile response to 5-HT [2]: no significant effect

Which results are given for Ketanserine tartrate?
atropine and α,β-methylene ATP-resistant component of 5-HT-induced contraction [2]: not abolished; effect on the contractile response to 5-HT [2]: no effect; effect on the contractile response to 5-HT ([2]; listed as ketanserine): no significant effect

Which “contraction in the rabbit bladder” value ([2]; 30-second application, 10^-8 to 10^-3M) does the source give for `NCCc1c[nH]c2ccc(O)cc12` [5-HT, 5-Hydroxytryptamine creatinine sulphate complex] here?
The value was “dose-dependent contraction”.

And the “contraction in the urethra” value [3]?
The value was “dose-dependent contraction”.

Which results are given for `Nc1ncnc2c1ncn2C1OC(COP(=O)(O)CP(=O)(O)OP(=O)(O)O)C(O)C1O` (stereo not drawn) [α,β-methylene ATP, α,β-Methyleneadenosine 5'-Triphosphate]?
inhibition of the response to field stimulation ([1]; 10^-6M): about 35%; effect on the response to field stimulation ([1]; atropine 10^-8 to 10^-6M): dose-dependent inhibition; inhibition of the 5-HT contractions [2]: partially inhibited
